A short description of data set [1]: Acetic Acid-Writhing Test according to Koster et al., analgetic activity, per os. The data set is classed as in vivo, white mouse (NMRI-Mouse). On the set-up: ED50: unit: mg/kg. The note with it: for ED50: substance alone, per os, 30 minutes after giving, linear regression. The protocol:
These investigations were carried out in the Acetic Acid Test (Writhing Test) on the white mouse.
Writhing According to Koster et al; Fed.
(§1) Animal: White Mouse (NMRI-Mouse); Application: per os
Writhing Test According to Koster et al.: Fed.
as §1
The pain reaction is expressed as a characteristic stretching of the animals ("writhing syndrome") which persists in irregular time intervals for a long period of time after the injection of the acetic acid. The dosage dependent suppression of the frequency of the stretching motion compared to an untreated control group is expressed in percent as analgetic effect. The evaluation is carried out by determination of the ED50 (Method of Linear Regression).
The acetic acid test is marked by the fact that not only is there detectable the effect of strong, central acting analgetics but also preponderantly peripherally acting analgetics-antipyretics and antiphlogistically active pharmaceuticals such as phenyl butazone, Indometacin and others. Therewith the effect in this procedure refers to a peripheral component of the analgesic.

Data set [2] can be described thus: Bradykinin-Edema Test, antiphlogistic activity, per os. The data set is classed as in vivo, albino rat (Sprague-Dawley). The following applies: alone. The protocol:
Bradykinin-Edema-Test Relying On and Modification of the Method of
Morsdorf et al (Arch. int. Pharmacodyn. 192,111-127 (1971). Animal:
Albino-rat (Sprague-Dawley):
Relying on the modification of the method of Morsdorf et al (Arch. int. Pharmacodyn. Volume 192, pages 111-127 (1971)) male rats received subplantarly in the right hind paw an injection of a 1% carrageenin solution (Carrageenin, Type IV, Sigma C-3889). One hour and four hours later there was determined the volume of the paw. To measure the volume there was used a volume meter (Rhema-Labortechnik Company, D-6238 Hofheim, Type 2060). Directly after the first measurement the test substance was dispensed by means of a gullet stomach catheter. There was calculated the increase in the swelling of the paw in the second measurement compared to the first measurement in absolute values (ml). The evaluation included the determination of the percent average value of the difference of the edema volumes one and four hours after receiving the inflammatory solution. The edema inhibiting action was calculated in percent from the edema volume measured by water displacement in comparison to the edema volume of the untreated inflammed control group.
As the single change in comparison to the Carrageenin-Edema Test in place of Carrageenin there was injected subplantarly Bradykinin (Sigma B 3259) 0.01 mg/animal in 0.1 ml of a 0.9% sodium chloride solution.

A short description of data set [3]: Randall-Selitto Test, inflammation pain, per os. The data set is classed as in vivo, albino rat (Sprague-Dawley). The note with it: alone. As for the experimental part: Randall-Selitto-Test According to Randall, Selitto, Arch. int.
Animal: Albino-Rat (Sprague-Dawley); Application: per os
Sucker, Fuchs, Speiser, Pharmazeutische Technologie, Thieme-Verlag, Stuttgart, 1978. Short Description of the Pharmacological Test Methods Mentioned in the Application Randall-Selitto-Test (Inflammation Pain on the Rat)
In accordance with the method of Randall and Selitto (L. O. Randall, J. J. Selitto, Arch. int. Pharmacodyn., Volume 111, pages 409-418, 1957) rats were injected subplantarly with […] of a 20% (in dimineralized water) brewer's yeast suspension in the right hind paw. 21/2 hours later the test materials were dispensed and 30 minutes later the swelling pain measured with an Algesiemeter as pressure (in grams) on the inflamed paw (apparatus of Ugo Basile, Milan, Italy). As criteria there are considered the defensive reaction of the animals drawing the paw away and/or freeing themselves from the grip of the experimenters. The effect of the material was determined from the increase of the swelling pain compared to the untreated control group. The experimental procedure different from the original method in that the materials were applied 21/2 hours after the setting of edema and not simultaneously therewith. In this way there should be prevented the development of edema, being checked by a possible antiphlogistic action and the analgesy superimposed or simulated.
The ED50 was determined by means of the method of linear regression.

The nature of data set [4]: Ulcerogenic effect (stomach mucosa erosion) 24 hours after single oral dispensation. The data set is classed as in vivo, albino rat (Sprague-Dawley). The note with it: 24 mg/kg Diclofenac alone per os. As for the experimental part: Testing of Ulcerogenic Effect Relying On the Method of Jahn and Adrian (Arzneimittelforschung, Volume 19 (1969) pages 36-52)
The experimental animals are male albino rats which are maintained under the usual conditions at 21°-22° C. After 48 hours of qualified feeding the test materials were dispensed perorally an increasing dosages. The animals were killed 24 hours later and the stomachs investigated for ulcerogenic changes according to the method of Munchow, Arzneimittelforschung, Volume 4 (1954), pages 341-344. (The size of the ulcers formed is measured are classified according to Munchow.)

The mark [5] stands for this setting: Mus musculus, po, read-out: Activity in %.

By ED50 is commonly meant the dose that gives a 50% effect, or the effect in half of the subjects. As to `O=C(O)Cc1ccccc1Nc1c(Cl)cccc1Cl` [Diclofenac], the ED50 in data set [1] (Mus musculus, po, 0.5 h) is 12 mg/kg; in data set [1] (30 min), 12.1 mg/kg; in data set [2] (per os, printed in words: no ED50 defineable), “No ED50”; in data set [3] (Rattus norvegicus, po, 0.5 h, per os, 30 minutes after giving, linear regression, read-out: ED50), 2.95 mg/kg. In addition, in data set [1] (setting [5]), the inhibition in vivo at 3.9 mg/kg came out at 33.3%. In addition, the inhibition in vivo at 7.8 mg/kg in data set [1] (setting [5]) was determined as 50%. Moreover, the inhibition in vivo at 15.6 mg/kg in data set [1] (setting [5]) is 45.8%. Moreover, the inhibition in vivo at 31.25 mg/kg in data set [1] (setting [5]) was determined as 66%. In data set [1] (setting [5]), the inhibition in vivo at 62.5 mg/kg is 67.4%. The inhibition in vivo at 125 mg/kg in data set [1] (setting [5]) stood at 91.7%. For the same compound, in data set [1] (Mus musculus, po, read-out: lowest analgetically effective dosage), the minimal effective dose turned out to be 3.9 mg/kg. Also, the “Activity in % (- = inhibiting)” value in data set [2] (1.0 mg/kg per os) is recorded as “+2.9%”; in data set [2] (3.0 mg/kg per os) it was “+8.6%”; in data set [2] (9.0 mg/kg per os), -31.4%; in data set [2] (27.0 mg/kg per os), -45.7%. Further, the Activity in % is 20.99% in data set [3] (1.0 mg/kg per os), 32.60% in data set [3] (3.0 mg/kg per os), 100.55% in data set [3] (10.0 mg/kg per os) and 135.36% in data set [3] (30.0 mg/kg per os). Further, the “ulcerogenic effect (stomach mucosa erosion)” value in data set [4] is recorded as “erosion of the stomach mucosa”.

These data come from patent US4778799A, “Synergistic combination of flupirtin and non-steroidal antiphlogistic” (priority 1985, dated 1988).
